Laboratory results reported in patent US5254576A, “Diphenyl-heterocyclic-oxazole as platelet aggregation inhibitors” (Bristol-Myers Squibb Company, priority 1992, dated 1993).
In brackets after ≈: the same amount, converted by molar mass.

System: human PRP vs ADP
Test: not given
Conditions: U.S. Pat. No. 4,460,598; Lautenschlager, et al., Drugs of the Future, 11, 26 (1986); cited from earlier work
In the case of O=C(O)CCCCCCCOc1nc(-c2ccccc2)c(-c2ccccc2)n1-c1ccccc1 [Octimibate], the “IC50 (human PRP vs ADP)” value is given as 1 µg/mL (≈ 2.2 µM).

System: ADP-induced aggregation of human blood platelets
Test: cells
Conditions: Platelet, read-out: IC50 (human PRP vs ADP)
For COC(=O)COc1cccc(-c2ocnc2-c2nc(-c3ccccc3)c(-c3ccccc3)o2)c1 [Compound 6], the IC50 was 0.012 µg/mL (≈ 0.0265 µM).
For COC(=O)COc1cccc(-c2ocnc2-c2nnc(-c3ccccc3)n2-c2ccccc2)c1 [Compound 16, Methyl [3-[4-(4,5-diphenyl-4H-1,2,4-triazol-3-yl)-5-oxazolyl]phenoxy]acetate], the IC50 was > 32 µg/mL.
COC(=O)COc1cccc(-c2ocnc2-c2nc(-c3ccsc3)c(-c3ccsc3)o2)c1 [Compound 19] gave an IC50 of 0.19 µg/mL (≈ 0.409 µM).
COC(=O)COc1cccc(-c2ocnc2-c2nc(-c3ccccc3)c(-c3ccccc3)s2)c1 [Compound 31] showed an IC50 of 0.26 µg/mL (≈ 0.555 µM).
For O=C(O)COc1cccc(-c2ocnc2-c2nnc(-c3ccccc3)n2-c2ccccc2)c1 [Compound 17], the IC50 was > 32 µg/mL.
COC(=O)COc1cccc(-c2ocnc2-c2nc(-c3ccccc3)c(-c3ccccc3)[nH]2)c1 [Compound 22] showed an IC50 of 0.13 µg/mL (≈ 0.288 µM).
For O=C(O)COc1cccc(-c2ocnc2-c2nc(-c3ccccc3)c(-c3ccccc3)[nH]2)c1 [Compound 23], the IC50 was 0.012 µg/mL (≈ 0.0274 µM).
c1ccc(-c2nc(-c3ncoc3-c3cccc(OCc4nnn[nH]4)c3)oc2-c2ccccc2)cc1 [Compound 12, 5-[3-[4-(4,5-Diphenyl-2-oxazolyl)-5-oxazolyl]-phenoxy]methyl-1H-tetrazole] showed an IC50 of 0.06 µg/mL (≈ 0.13 µM).
In the case of O=C(O)COc1cccc(-c2ocnc2-c2nc(-c3ccsc3)c(-c3ccsc3)o2)c1 [Compound 20], the IC50 is reported as 0.21 µg/mL (≈ 0.466 µM).
Work on COCOc1cccc(-c2ocnc2-c2nc(-c3ccccc3)c(-c3ccccc3)o2)c1 [Compound 10] yielded an IC50 of 28 µg/mL (≈ 66 µM).
O=C(O)COc1cccc(-c2ocnc2-c2nc(-c3ccccc3)c(-c3ccccc3)o2)c1 [Compound 5] showed an IC50 of 0.012 µg/mL (≈ 0.0274 µM).
With O=C(O)COc1cccc(-c2ocnc2-c2nc(-c3ccccc3)c(-c3ccccc3)s2)c1 [Compound 32] the IC50 was 0.096 µg/mL (≈ 0.211 µM).

System: platelet aggregation
Test: not given
Conditions: prior art (U.S. Pat. No. 4,460,598; EPO 0434034); cited from earlier work
For O=C(O)CCCCCCCOc1nc(-c2ccccc2)c(-c2ccccc2)n1-c1ccccc1 [Octimibate], the “inhibition of platelet aggregation, in words” value is listed as “broad spectrum inhibitor of platelet aggregation”.
